From patent publication US10065941B2, “Aminotriazine derivative and pharmaceutical composition comprising the same” (Shionogi & Co., Ltd., priority 2013, dated 2018) come the findings set out here.

pIC50: −log10 of the molar value.

Chain of human P2X3 receptor (P56373 whole entry): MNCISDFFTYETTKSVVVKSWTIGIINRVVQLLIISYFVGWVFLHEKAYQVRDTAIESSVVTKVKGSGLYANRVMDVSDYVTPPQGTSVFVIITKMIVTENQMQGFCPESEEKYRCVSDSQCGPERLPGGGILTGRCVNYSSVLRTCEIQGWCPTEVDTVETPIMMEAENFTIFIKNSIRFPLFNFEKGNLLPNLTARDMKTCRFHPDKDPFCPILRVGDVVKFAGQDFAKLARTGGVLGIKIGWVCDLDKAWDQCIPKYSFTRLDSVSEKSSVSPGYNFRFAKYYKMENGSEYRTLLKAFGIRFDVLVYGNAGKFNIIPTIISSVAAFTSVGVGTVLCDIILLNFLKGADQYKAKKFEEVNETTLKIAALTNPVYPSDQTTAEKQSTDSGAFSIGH

The assay deals with human P2X3 receptor (Homo sapiens (Human), UniProt P56373). Briefly: Evaluation of human P2X3 receptor inhibitory activity (Test Example 1). The assay is classed as cell-based. The note with it: C6BU-1 cell transfected with human P2X3 receptor gene, FLIPR 384. The essentials:
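FLIPR calcium read-out: signal taken as peak fluorescence after ATP addition divided by starting fluorescence, and IC50 calculated from it. Compound added 5 min before 150 nM ATP solution (pre-dispense stock) to Fluo-3-AM-loaded C6BU-1 cells stably transfected with human P2X3; HEPES buffer pH 7.5 with probenecid.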
The molecule `COC(=O)[C@@H](C)Cn1c(=O)[nH]/c(=N\c2ccc(Oc3cccc(CO)n3)cc2)n(Cc2ccc(C)cc2)c1=O` [Compound I-246] gave a pIC50 of 7.85.

As to `COCc1ccc(Oc2ccc(/N=c3\[nH]c(=O)n(C[C@H](C)C(=O)OC)c(=O)n3Cc3ccc(Cl)cc3)cc2)nc1` [Compound I-247], the negative logarithm of the IC50 (pIC50) was 8.22. Next, `COCc1cccc(Oc2ccc(/N=c3\[nH]c(=O)n(C[C@H](C)C(=O)OC)c(=O)n3Cc3ccc(Cl)cc3)cc2)n1` [Compound I-249]: 7.44; `COCc1cccc(Oc2ccc(/N=c3\[nH]c(=O)n(C[C@H](C)C(=O)OC)c(=O)n3Cc3ccc(C)cc3)cc2)n1` [Compound I-250]: 7.51; `CCc1ccc(Oc2ccc(/N=c3\[nH]c(=O)n(C[C@H](C)C(=O)OC)c(=O)n3Cc3ccc(Cl)cc3)cc2)nc1` [Compound I-251]: 8.10. Consider `COC(=O)[C@@H](C)Cn1c(=O)[nH]/c(=N\c2ccc(Oc3ccccn3)c(Cl)c2)n(Cc2ccc(Cl)cc2)c1=O` [Compound I-252], for which the negative-log IC50 (pIC50) is 7.85. The value for `COCc1ccc(Oc2ccc(/N=c3\[nH]c(=O)n(C[C@H](C)C(=O)O)c(=O)n3Cc3ccc(C)cc3)cc2)nc1` [Compound I-254] was 8.22; that for `COCc1cccc(Oc2ccc(/N=c3\[nH]c(=O)n(C[C@H](C)C(=O)O)c(=O)n3Cc3ccc(Cl)cc3)cc2)n1` [Compound I-255] was 7.74.

Molecule `COCc1cccc(Oc2ccc(/N=c3\[nH]c(=O)n(C[C@H](C)C(=O)O)c(=O)n3Cc3ccc(C)cc3)cc2)n1` [Compound I-256] gave a negative-log IC50 (pIC50) of 7.54. `C[C@@H](Cn1c(=O)[nH]/c(=N\c2ccc(Oc3cccc(CO)n3)cc2)n(Cc2ccc(Cl)cc2)c1=O)C(=O)O` [Compound I-257] had a pIC50 of 7.80.

The molecule `CCc1ccc(Oc2ccc(/N=c3\[nH]c(=O)n(C[C@H](C)C(=O)O)c(=O)n3Cc3ccc(Cl)cc3)cc2)nc1` [Compound I-258] gave a negative logarithm of the IC50 (pIC50) of 8.40. Next, `CC(=O)c1ccc(Oc2ccc(/N=c3\[nH]c(=O)n(C[C@H](C)C(=O)O)c(=O)n3Cc3ccc(Cl)cc3)cc2)nc1` [Compound I-259]: 8.30; `CC(=O)c1ccc(Oc2ccc(/N=c3\[nH]c(=O)n(C[C@H](C)C(=O)O)c(=O)n3Cc3ccc(C)cc3)cc2)nc1` [Compound I-260]: 8.30. Molecule `Cc1ccc(Cn2c(=O)n(C[C@H](C)C(=O)O)c(=O)[nH]/c2=N\c2ccc(Oc3cccc(CF)n3)cc2)cc1` [Compound I-261] showed a pIC50 of 8.10. On to `Cc1ccc(Cn2c(=O)n(C[C@H](C)C(=O)O)c(=O)[nH]/c2=N\c2ccc(Oc3ccc(C(C)O)cn3)cc2)cc1` (stereo partly drawn) [Compound I-262], for which the negative-log IC50 (pIC50) is 8.15.

`C[C@@H](Cn1c(=O)[nH]/c(=N\c2ccc(Oc3ccccn3)cc2)n(CC2CC3(CCC3)C2)c1=O)C(=O)O` [Compound I-263] showed a pIC50 of 8.30. Turning to `C[C@@H](Cn1c(=O)[nH]/c(=N\c2ccc(Oc3ccc(F)cn3)cc2)n(CC2CC3(CCC3)C2)c1=O)C(=O)O` [Compound I-264], the pIC50 is 8.30. Take `COC(=O)[C@@H](C)Cn1c(=O)[nH]/c(=N\c2ccc(Oc3cccc(CI)n3)cc2)n(Cc2ccc(C)cc2)c1=O` [Compound I-265]: the negative-log IC50 (pIC50) was 8.00. The value for `COC(=O)[C@@H](C)Cn1c(=O)[nH]/c(=N\c2ccc(Oc3cccc(CF)n3)cc2)n(Cc2ccc(C)cc2)c1=O` [Compound I-266] was 8.10.

With `COC(=O)[C@@H](C)Cn1c(=O)[nH]/c(=N\c2ccc(Oc3ccc(C(C)=O)cn3)cc2)n(Cc2ccc(C)cc2)c1=O` [Compound I-267], the pIC50 was 8.52. In turn, `COC(=O)[C@@H](C)Cn1c(=O)[nH]/c(=N\c2ccc(Oc3ccccn3)cc2)n(CC2CC3(CCC3)C2)c1=O` [Compound I-268] showed a negative-log IC50 (pIC50) of 8.52. The value for `COC(=O)[C@@H](C)Cn1c(=O)[nH]/c(=N\c2ccc(Oc3ccc(F)cn3)cc2)n(CC2CC3(CCC3)C2)c1=O` [Compound I-269] was 8.40; that for `CCc1ccc(Oc2ccc(/N=c3\[nH]c(=O)n(C[C@H](C)C(=O)OC)c(=O)n3Cc3ccc(C)cc3)cc2)nc1` [Compound I-270] was 8.40. The value for `COC(=O)[C@@H](C)Cn1c(=O)[nH]/c(=N\c2ccc(Oc3ccccn3)cc2)n(Cc2ccc(Cl)s2)c1=O` [Compound I-271] was 8.00; that for `COC(=O)[C@@H](C)Cn1c(=O)[nH]/c(=N\c2ccc(Oc3ccc(F)cn3)cc2)n(Cc2ccc(Cl)s2)c1=O` [Compound I-272] was 8.10. Molecule `C[C@@H](Cn1c(=O)[nH]/c(=N\c2ccc(Oc3ccccn3)cc2)n(Cc2ccc(Cl)s2)c1=O)C(=O)O` [Compound I-273] showed a negative logarithm of the IC50 (pIC50) of 8.30. The value for `C[C@@H](Cn1c(=O)[nH]/c(=N\c2ccc(Oc3ccc(F)cn3)cc2)n(Cc2ccc(Cl)s2)c1=O)C(=O)O` [Compound I-274] was 8.30; that for `CCc1ccc(Oc2ccc(/N=c3\[nH]c(=O)n(C[C@H](C)C(=O)O)c(=O)n3Cc3ccc(C)cc3)cc2)nc1` [Compound I-275] was 8.40; that for `Cc1cc(/N=c2\[nH]c(=O)n(C[C@H](C)C(=O)O)c(=O)n2Cc2ccc(Cl)s2)ccc1Oc1ncccc1F` [Compound I-276] was 7.72. Turning to `CC(C)(C)n1c(=O)[nH]/c(=N\c2ccc(Oc3ccc(-c4cccc(C(=O)O)c4)cn3)cc2)n(Cc2ccc(Cl)cc2)c1=O` [Compound R-001], the negative-log IC50 (pIC50) is 8.15. Next, `COC(=O)c1cccc(-c2ccc(Oc3ccc(/N=c4\[nH]c(=O)[nH]c(=O)n4Cc4ccc(Cl)cc4)cc3)nc2)c1` [Compound R-002]: 6.44; `O=C(O)c1cccc(-c2ccc(Oc3ccc(/N=c4\[nH]c(=O)[nH]c(=O)n4Cc4ccc(Cl)cc4)cc3)nc2)c1` [Compound R-003]: 8.40. The value for `COC(=O)c1ccc(NC(=O)c2cccc(Oc3ccc(/N=c4\[nH]c(=O)n(C)c(=O)n4C[C@H]4CC[C@H](C)CC4)cc3)n2)cc1` [Compound R-004] was 6.91; that for `CCn1c(=O)[nH]/c(=N\c2ccc(-c3ccc(C#N)cn3)cc2)n(Cc2ccc(Cl)cc2)c1=O` [Compound R-005] was 6.22; that for `Cn1c(=O)[nH]/c(=N\c2ccc(Oc3cccc(C(=O)Nc4ccc(C(=O)O)cc4)n3)cc2)n(C[C@H]2CC[C@H](C)CC2)c1=O` [Compound R-006] was 8.40. Next, `CCn1c(=O)nc(Nc2ccc3nc(C(C)C)oc3c2)n(Cc2ccc(Cl)cc2)c1=O` [Compound R-007]: 6.52; `COc1nccc(Oc2ccc(/N=c3\[nH]c(=O)n([C@@H](C)[C@@H](C)C(=O)O)c(=O)n3Cc3ccc(Cl)cc3)cc2)n1` [Compound R-010]: 8.00.

Regarding `CC(C)n1c(=O)[nH]/c(=N\c2ccc(Oc3cccc(C#N)n3)c(Cl)c2)n(Cc2ccc(Cl)cc2)c1=O` [Compound R-011], the pIC50 was 7.31. The value for `CC(C)n1c(=O)[nH]/c(=N\c2ccc(Oc3cccc(C(=O)O)n3)c(Cl)c2)n(Cc2ccc(Cl)cc2)c1=O` [Compound R-012] was 8.30; that for `COC(=O)[C@@H](C)Cn1c(=O)[nH]/c(=N\c2ccc(Oc3cnc(Cl)cn3)cc2)n(Cc2ccc(Cl)cc2)c1=O` [Compound R-013] was 8.22; that for `C[C@@H](Cn1c(=O)[nH]/c(=N\c2ccc(Oc3cnc(Cl)cn3)cc2)n(Cc2ccc(Cl)cc2)c1=O)C(=O)O` [Compound R-014] was 8.30.

Take `CCOC(=O)c1cnc(Oc2ccc(/N=c3\[nH]c(=O)n(CC)c(=O)n3Cc3ccc(Cl)cc3)cc2)c(Cl)c1` [Compound R-015, 1-(4-chlorobenzyl)-6-[4-(3-chloro-5-ethoxycarbonyl-2-pyridyloxy)phenylimino]-3-ethyl-1,3,5-triazinane-2,4-dione]: the pIC50 was 6.98.

As to `CCn1c(=O)[nH]/c(=N\c2ccc(Oc3ncc(C(=O)O)cc3Cl)cc2)n(Cc2ccc(Cl)cc2)c1=O` [Compound R-016, 1-(4-chlorobenzyl)-6-[4-(3-chloro-5-hydroxycarbonyl-2-pyridyloxy)phenylimino]-3-ethyl-1,3,5-triazinane-2,4-dione], the negative logarithm of the IC50 (pIC50) was 8.22. On to `COC(=O)[C@@H](C)Cn1c(=O)[nH]/c(=N\c2ccc(Oc3cnccn3)cc2)n(Cc2ccc(Cl)cc2)c1=O` [Compound R-017], for which the negative-log IC50 (pIC50) is 8.22.

In the case of `C[C@@H](Cn1c(=O)[nH]/c(=N\c2ccc(Oc3cnccn3)cc2)n(Cc2ccc(Cl)cc2)c1=O)C(=O)O` [Compound R-019], the pIC50 is 8.22. The value for `CC(C)(Cn1c(=O)[nH]/c(=N\c2ccc(Oc3cnccn3)cc2)n(Cc2ccc(Cl)cc2)c1=O)C(=O)O` [Compound R-020] was 7.89; that for `CC(C)Oc1ccc(/N=c2\[nH]c(=O)n([C@H]3C[C@H](C(=O)O)C3)c(=O)n2Cc2ccc(Cl)cc2)cc1Cl` [Compound R-021] was 7.82; that for `CC(C)Oc1ccc(/N=c2\[nH]c(=O)n([C@H]3C[C@@H](C(=O)O)C3)c(=O)n2Cc2ccc(Cl)cc2)cc1Cl` [Compound R-022] was 7.92. The value for `CCc1oc2ccc(/N=c3\[nH]c(=O)n([C@H]4C[C@H](C(=O)O)C4)c(=O)n3Cc3ccc(Cl)cc3)cc2c1C` [Compound R-023] was 7.68; that for `CCc1oc2ccc(/N=c3\[nH]c(=O)n([C@H]4C[C@@H](C(=O)O)C4)c(=O)n3Cc3ccc(Cl)cc3)cc2c1C` [Compound R-024] was 7.74. The value for `COC(=O)C(C)(C)Cn1c(=O)[nH]/c(=N\c2ccc(Oc3cnc(Cl)cn3)cc2)n(Cc2ccc(Cl)cc2)c1=O` [Compound R-025] was 8.30. `COC(=O)C(C)Cn1c(=O)[nH]/c(=N\c2ccc(Oc3ccc(OC(F)F)cn3)cc2)n(Cc2ccc(Cl)cc2)c1=O` (stereo not drawn) [Compound R-026]: the pIC50 was 8.10. The value for `CC(C)(Cn1c(=O)[nH]/c(=N\c2ccc(Oc3cnc(Cl)cn3)cc2)n(Cc2ccc(Cl)cc2)c1=O)C(=O)O` [Compound R-027] was 8.22. The value for `COC(=O)[C@@H](C)Cn1c(=O)[nH]/c(=N\c2ccc(Oc3ccc(C(F)(F)F)nn3)cc2)n(Cc2ccc(Cl)cc2)c1=O` [Compound R-028] was 8.15.
